Measurements as given in patent publication US4112076A, “Epi-daunomycin and epi-adriamycin compounds and method of use” (priority 1975, dated 1978).
In brackets after ≈: the same amount, converted by molar mass. Read-outs that look alike come from different tables or passages of the source.

How the values were obtained:
[1] = system: Hela cells; experiment: Cloning efficiency of Hela cells in vitro (colony inhibition); format: cell-based; details: Homo sapiens
Procedure: After treatment for 2, 8 and 24 hours, Hela cells were seeded (200 cells per plate) and the number of colonies determined 8 days later. The inhibiting dose (ID50) represents the does which produces a 50% inhibition of colonies.
^a cloning efficiency of Hela cells

[2] = system: Moloney Sarcoma Virus (MSV); experiment: Formation of foci by Moloney Sarcoma Virus (MSV) in vitro (antiviral action); format: cell-based; details: Fibroblast, 72 h, read-out: Antiviral action ID50
Procedure: (§1) The test compound was evaluated on mouse embryo fibroblast (MEF) cultures infected with MSV and on similar uninfected cultures. After a treatment of three days the inhibiting doses (ID50) were evaluated on cell proliferation in uninfected cultures (cytotoxic action) and on MSV foci formation in infected cultures (antiviral action).
^b inhibition of MSV foci formation

[3] = Proliferation of uninfected mouse embryo fibroblast (MEF) cultures (cytotoxic action); format: cell-based; details: mouse, mouse embryo fibroblasts; uninfected MEF, three days treatment; Table 2; read-out: Cytotoxic action ID50
Procedure: as §1
(§2) ^c inhibition of mouse embryo fibroblasts proliferation

[4] = system: mouse embryo fibroblast (MEF) cultures; experiment: as above; format: cell-based
Procedure: as §1, §2

[5] = system: Ascites lymphocitic P 388 Leukemia; experiment: Ascites lymphocitic P 388 Leukemia in CDF1 mice, i.p. treatment days 1-9; format: in vivo, mouse (male CDF1); details: for Tumor evaluation, median survival time: control 12.1 days

COc1cccc2c1C(=O)c1c(O)c3c(c(O)c1C2=O)C[C@@](O)(C(C)=O)C[C@@H]3O[C@H]1C[C@@H](N)[C@@H](O)[C@H](C)O1 [3'-4'-epi-daunomycin, 3',4'-epi-daunomycin]
IC50 ([1]; 2 h, read-out: ID50 (action on Hela cells), 2 hours treatment, Table 1): 270 µg/mL (≈ 512 µM)
IC50 ([1]; 8 h, read-out: ID50 (action on Hela cells), 8 hours treatment, Table 1): 220 µg/mL (≈ 417 µM)
IC50 ([1]; 24 h, read-out: ID50 (action on Hela cells), 24 hours treatment, Table 1): 190 µg/mL (≈ 360 µM)
IC50 [2]: 0.045 µg/mL (≈ 0.0853 µM)
CC50 at 72 h [3]: 0.09 µg/mL (≈ 0.171 µM)
cytotoxic activity in vitro compared with daunomycin [4]: less cytotoxic acitivity in vitro, when compared with daunomycin
Toxicity (survivors at fifth day) ([5]; 1.56 mg/kg i.p., days 1-9): 6/6
Tumor evaluation, T/C % ([5]; 1.56 mg/kg i.p., days 1-9): 129%
Tumor evaluation, median survival time ([5]; 1.56 mg/kg i.p., days 1-9): 15.7 days
Toxicity (survivors at fifth day) ([5]; 3.13 mg/kg i.p., days 1-9): 6/6
Tumor evaluation, T/C % ([5]; 3.13 mg/kg i.p., days 1-9): 142%
Toxicity (survivors at fifth day) ([5]; 6.25 mg/kg i.p., days 1-9): 6/6
Tumor evaluation, T/C % ([5]; 6.25 mg/kg i.p., days 1-9): 155%
Toxicity (survivors at fifth day) ([5]; 12.5 mg/kg i.p., days 1-9): 6/6
Tumor evaluation, T/C % ([5]; 12.5 mg/kg i.p., days 1-9): 173%
Tumor evaluation, median survival time ([5]; 12.5 mg/kg i.p., days 1-9): 21 days
Toxicity (survivors at fifth day) ([5]; 25 mg/kg i.p., days 1-9): 6/6
Tumor evaluation, T/C % ([5]; 25 mg/kg i.p., days 1-9): 231%
Tumor evaluation, median survival time ([5]; 25 mg/kg i.p., days 1-9): 28 days
Cures ([5]; 25 mg/kg i.p., days 1-9, evaluated day 20): 1
anti-tumor activity in tumor bearing animals ([5]; Table 3): distinct anti-tumor activity
